Experimental data from article PMC8957230 (ADMET & DMPK, 2019).
Values after ≈ are worked out from the molar mass of the structure shown. Read-outs that look alike come from different tables or passages of the source. Marks after values point to notes of the source that are not given here. Values belong to the molecule of their own block, whether it stands above or below them.

Key:
[1] = cited from earlier work
[2] = cited from earlier work; remark: listed apart in the source
[3] = average of two
Procedure: Essentially, in the present investigation, about 0.5 mL of buffer was added to 200 mg of powder in a small vial and mixed by vortexing, and then pH was recorded when an equilibrium was reached after 5-10 min of mixing.

[4] = Solubility in buffered/non-buffered media
Procedure: Cocrystal solubilities were determined at pH 1 solution (0.1 M HCl), pH 2 HCl buffer), pH 5 acetate buffer and pH 8 phosphate buffer. Buffers were prepared according to the United States Pharmacopeia (USP) procedures. […] Aliquots were filtered by 0.45-micron PVDF filter and analyzed by HPLC. The solid phase was analyzed by Raman spectroscopy.

[5] = Intrinsic dissolution rate; assay type: physicochemical; set-up: key: -: Extremely low dissolution rate (practically zero) that could not be calculated with accuracy; conditions: 25 °C
Procedure: For each determination, 100 mg of powder was compressed into pellet by Carver press at 1 ton pressure for 10 seconds. The apparatus with the exposed surface of the material was immersed into 250 mL of dissolution medium and rotated at 200 RPM. pH of dissolution media during the intrinsic dissolution testing were maintained by two different methods: in one case, unbuffered media were used where either 0.1 M HCl or 0.1 M NaOH were added to keep pH constant at 3, 4 or 5 (±0.15), and in the second case, pH 3, 4 and 5 phthalate buffers prepared according to the USP were used as dissolution media to keep pH constant. Two mL of aliquot was withdrawn at each of 5, 15, 30, 60, 90 and 120 min time points, filtered by 0.45-micron PVDF filter, and analyzed by HPLC for drug concentration.

[6] = Ketoconazole solubility with fumaric/succinic acid and 1:1 physical mixtures with coformers; assay type: physicochemical; conditions: 1:1 ketoconazole-fumaric acid mixture, 25 °C
Procedure: A series of solutions with different concentrations of acids were prepared and 3 mL quantities of these solutions were distributed in separate glass vials. […] Aliquots of suspensions (0.5-0.7 mL each) were, however, withdrawn from each vial after 4, 24 and 96 h of shaking for analysis of drug concentration by HPLC according to the method described earlier. For the analysis of solid phase, contents of the vials were transferred to 3-mL Eppendorf tubes and centrifuged using Beckman GS 6R centrifuge at 2000 RPM for 5 min. After centrifugation, the supernatants were removed and solid contents were dried in a vacuum oven at 50 °C, which were then analyzed by DSC and Raman spectroscopy.
In this study, different quantities of the mixtures (12 mg to 350 mg) were added to different 20 mL glass vials, and then 5 mL of water was added to each vial. Thus, the volume of water in each vial remained the same and only the amount of material added differed. […] Samples were withdrawn from each vial at 4, 24 and 96 h to measure drug concentration, as described earlier. The solid phase of the vials was analyzed using Raman spectroscopy to determine the identity of equilibrium species. From some of the vials, solid contents were separated by centrifugation, dried in a vacuum oven, and then analyzed by DSC.

[7] = Ketoconazole solubility by pH adjustment with HCl (pH-solubility profile); assay type: physicochemical; conditions: 25 °C
Procedure: Multiple vials were prepared using different concentration of HCl solutions (0.001M to 1M) so that different pH values could be attained, and, when needed, more amount of free base was added to maintain excess solid in the vials. […] Additional HCl solution and excess ketoconazole were added to the suspension in vial and shaken for another pH point, and the process was repeated until enough points on the pH scale were obtained. More than one suspension in different vials were used to generate a complete profile.

[8] = set-up: method as in earlier work; conditions: 5 mM sodium taurocholate and […] lecithin in pH 6.8 phosphate buffer; cited from earlier work
[9] = excess cocrystal in water, 25 °C
[10] = pH 3 phthalate buffer, initial (bulk) pH 2.93
[11] = pH 5 neutralized phthalate buffer, initial (bulk) pH 4.97
[12] = pH 7 phosphate buffer, initial (bulk) pH 6.97
[13] = initial pH 1.1 (0.1 M HCl), 25 °C
[14] = initial pH 2.1 HCl/KCl buffer, 25 °C
[15] = initial pH 5.0 acetate buffer, 25 °C
[16] = initial pH 7.9 phosphate buffer, 25 °C
[17] = buffers, pH 3 phthalate, 0.5 cm^2
[18] = buffers, pH 4 phthalate, 0.5 cm^2
[19] = unbuffered media, pH 3 kept constant with HCl or NaOH, 0.5 cm^2
[20] = unbuffered media, pH 4 kept constant with HCl or NaOH, 0.5 cm^2

Molecule: CC(C)(C)C(=O)OCOP(=O)(COCCn1cnc2c(N)ncnc21)OCOC(=O)C(C)(C)C [adefovir dipivoxil]
Solubility in water [1]: 790 µM | pH of saturated solutions [1]: 6.7

Molecule: O=C(O)CCC(=O)O [succinic acid]
pKa, first ionization [2]: 3.93 | pKa, second ionization [2]: 5.30

Molecule: CC(=O)N1CCN(c2ccc(OC[C@H]3CO[C@](Cn4ccnc4)(c4ccc(Cl)cc4Cl)O3)cc2)CC1.Cl.Cl [ketoconazole dihydrochloride salt, ketoconazole dihydrochloride]
Solubility (in words) [1]: very high solubility

Molecule: O=C(O)/C=C/C(=O)O [fumaric acid]
pKa, first ionization [2]: 2.74 | pKa, second ionization [2]: 4.17

pH h=0 (slurry pH) [3, 10]: 4.17 | pH h=0 (slurry pH) [3, 11]: 5.00 | pH h=0 (slurry pH) [3, 12]: 7.05 | solubility ([4]; 0.1 M HCl, 25 °C, pH 1.1, simulated gastric fluid, thermodynamic from solid): ~27000 µg/mL (≈ 50800 µM) | solubility ([4]; HCl/KCl buffer, 25 °C, pH 2.1, simulated gastric fluid, thermodynamic from solid): ~3400 µg/mL (≈ 6400 µM) | solubility ([4]; acetate buffer, 25 °C, pH 5, aqueous buffer, thermodynamic from solid): 130 µg/mL (≈ 245 µM) | pH after equilibration [4, 13]: ~2.9 ^* | pH after equilibration [4, 14]: ~3.6 ^* | pH after equilibration [4, 15]: 4.95 | pH after equilibration [4, 16]: 7.82±0.01 | solubility ([4]; phosphate buffer, pH 7.9): 1 µg/mL (≈ 1.88 µM) | Dissolution rate constant [5, 17]: 108 μg.min^-1.cm^-2 | Dissolution rate constant [5, 18]: 45 μg.min^-1.cm^-2 | Dissolution rate constant ([5]; buffers, pH 5 phthalate): - ^** | Dissolution rate constant [5, 19]: 106 μg.min^-1.cm^-2 | Dissolution rate constant [5, 20]: 16 μg.min^-1.cm^-2 | Dissolution rate constant ([5]; unbuffered media, pH 5 kept constant with HCl or NaOH): - ^** | solubility at 96 h ([6]; equilibrated 96 h, pH~3.7): ~3000 µg/mL (≈ 5650 µM) | solubility at 4 h ([6]; water, thermodynamic from solid, equilibrated 4 h, no conversion to cocrystal): ~7000 µg/mL (≈ 13200 µM) | solubility ([7]; pH of suspension 3.35, pH lowered using HCl, listed as ketoconazole base): 5429 µg/mL (≈ 10200 µM) | solubility ([7]; suspension in distilled water, pH adjusted with HCl, pH 3.1, aqueous buffer, thermodynamic from solid, pH 3.1, pH adjusted with HCl, read-out: Highest solubility measured): 148000 µg/mL (≈ 279000 µM) | solubility ([7]; suspension in distilled water, pH adjusted with HCl, pH 3.1, aqueous buffer, thermodynamic from solid, pH of suspension 3.1, pH lowered using HCl, read-out: Solubility): 148000 µg/mL (≈ 279000 µM) | solubility ([7]; suspension in distilled water, pH adjusted with HCl, pH 3.35, aqueous buffer, thermodynamic from solid, pH of suspension 3.35, pH lowered using HCl, read-out: Solubility): 5460 µg/mL (≈ 10300 µM) | solubility ([7]; suspension in distilled water, pH adjusted with HCl, pH 3.37, aqueous buffer, thermodynamic from solid, pH of suspension 3.37, pH lowered using HCl, read-out: Solubility): 7100 µg/mL (≈ 13400 µM) | solubility ([7]; suspension in distilled water, pH adjusted with HCl, pH 3.58, aqueous buffer, thermodynamic from solid, pH of suspension 3.58, pH lowered using HCl, read-out: Solubility): 3420 µg/mL (≈ 6440 µM) | solubility ([7]; suspension in distilled water, pH adjusted with HCl, pH 3.81, aqueous buffer, thermodynamic from solid, pH of suspension 3.81, pH lowered using HCl, read-out: Solubility): 1930 µg/mL (≈ 3630 µM) | solubility ([7]; suspension in distilled water, pH adjusted with HCl, pH 4.28, aqueous buffer, thermodynamic from solid, pH of suspension 4.28, pH lowered using HCl, read-out: Solubility): 729 µg/mL (≈ 1370 µM) | solubility ([7]; suspension in distilled water, pH adjusted with HCl, pH 4.48, aqueous buffer, thermodynamic from solid, pH of suspension 4.48, pH lowered using HCl, read-out: Solubility): 345 µg/mL (≈ 649 µM) | solubility ([7]; suspension in distilled water, pH adjusted with HCl, pH 4.56, aqueous buffer, thermodynamic from solid, pH of suspension 4.56, pH lowered using HCl, read-out: Solubility): 354 µg/mL (≈ 666 µM) | solubility ([7]; suspension in distilled water, pH adjusted with HCl, pH 4.95, aqueous buffer, thermodynamic from solid, pH of suspension 4.95, pH lowered using HCl, read-out: Solubility): 178 µg/mL (≈ 335 µM) | solubility ([7]; suspension in distilled water, pH adjusted with HCl, pH 4.99, aqueous buffer, thermodynamic from solid, pH of suspension 4.99, pH lowered using HCl, read-out: Solubility): 175 µg/mL (≈ 329 µM) | solubility ([7]; suspension in distilled water, pH adjusted with HCl, pH 7.12, aqueous buffer, thermodynamic from solid, pH of suspension 7.12, pH lowered using HCl, read-out: Solubility): 5 µg/mL (≈ 9.41 µM) | solubility ([7]; suspension in distilled water, pH adjusted with HCl, pH 7.23, aqueous buffer, thermodynamic from solid, pH of suspension 7.23, pH lowered using HCl, read-out: Solubility): 4 µg/mL (≈ 7.53 µM) | solubility ([7]; suspension in distilled water, pH adjusted with HCl, pH 3.67, pH of suspension 3.67, pH lowered using HCl, read-out: Solubility): 3030 µg/mL (≈ 5700 µM) | solubility ([7]; suspension in distilled water, pH adjusted with HCl, pH 3.71, pH of suspension 3.71, pH lowered using HCl, read-out: Solubility): 2780 µg/mL (≈ 5230 µM) | solubility ([7]; suspension in distilled water, pH adjusted with HCl, pH 7.27, pH of suspension 7.27, pH lowered using HCl, read-out: Solubility): 3 µg/mL (≈ 5.65 µM) | solubility ([7]; suspension in distilled water, pH adjusted with HCl, pH 7.72, pH of suspension 7.72, pH lowered using HCl, read-out: Solubility): 2 µg/mL (≈ 3.76 µM) | solubility ([7]; suspension in distilled water, pH adjusted with HCl, pH 7.92, pH of suspension 7.92, pH lowered using HCl, read-out: Solubility): 3 µg/mL (≈ 5.65 µM) | solubility ([7]; suspension in distilled water, pH adjusted with HCl, pH 8.49, pH of suspension 8.49, pH lowered using HCl, read-out: Solubility): 2 µg/mL (≈ 3.76 µM) | solubility ([7]; suspension in distilled water, pH adjusted with HCl, pH higher than 8, read-out: Intrinsic solubility of the free base (nonprotonated species)): ~2 µg/mL (≈ 3.76 µM)
Molecule: CC(=O)N1CCN(c2ccc(OCC3COC(Cn4ccnc4)(c4ccc(Cl)cc4Cl)O3)cc2)CC1 (stereo not shown) [ketoconazole]

Molecule: CCOc1ccccc1C(N)=O [ethenzamide]
Solubility in water [1]: 0.80 to 0.85 µg/mL

Molecule: CC(=O)Nc1nc2c(Oc3cc(-c4ccc(C(F)(F)F)cc4)ncn3)cccc2s1 [AMG 517]
pKa [2]: 0.68 | Solubility in FaSIF [8]: 5 µg/mL (≈ 11.6 µM)

Molecule: ketoconazole-fumaric acid cocrystal
pH h=0 (slurry pH) [3, 10]: 3.13 | pH h=0 (slurry pH) ([3]; pH 4 phthalate buffer, initial (bulk) pH 3.96): 4.08 | pH h=0 (slurry pH) [3, 11]: 4.23 | pH h=0 (slurry pH) [3, 12]: 4.53 | pH of saturated solution in water [9]: 4.1 | Solubility in water (as ketoconazole equivalents) ([9]; saturated solution pH 4.1 (fumaric) / 4.2 (succinic)): 2600 µg/mL | pH after equilibration [4, 13]: 2.03± 0.01 | solubility ([4]; initial pH 1.1 (0.1 M HCl), 25 °C, average of three determinations): 21540 ± 550 µg/mL | pH after equilibration [4, 14]: 2.89 ± 0.02 | solubility ([4]; initial pH 2.1 HCl/KCl buffer, 25 °C, average of three determinations): 3390 ± 20 µg/mL | pH after equilibration [4, 15]: 4.31 ± 0.02 | solubility ([4]; initial pH 5.0 acetate buffer, 25 °C, average of three determinations): 600 ± 20 µg/mL | pH after equilibration [4, 16]: 7.17 ± 0.01 | solubility ([4]; initial pH 7.9 phosphate buffer, 25 °C, average of three determinations): 3 ± 2 µg/mL | Dissolution rate constant [5, 17]: 108 μg.min^-1.cm^-2 | Dissolution rate constant [5, 18]: 71 μg.min^-1.cm^-2 | Dissolution rate constant ([5]; buffers, pH 5 phthalate, 0.5 cm^2): 51 μg.min^-1.cm^-2 | Dissolution rate constant [5, 19]: 164 μg.min^-1.cm^-2 | Dissolution rate constant [5, 20]: 124 μg.min^-1.cm^-2 | Dissolution rate constant ([5]; unbuffered media, pH 5 kept constant with HCl or NaOH, 0.5 cm^2): 93 μg.min^-1.cm^-2

Molecule: Nc1nnc(-c2cccc(Cl)c2Cl)c(N)n1 [lamotrigine]
Solubility in water [1]: 154 µg/mL | pH of the aqueous slurries during the determination of solubility [1]: 6.8 | Solubility in water ([1]; pH of ~5.5, cocrystals at 1:1 ratios): 280 µg/mL
